# Counter-ions that a name gives are not always drawn.
# Columns and labels:
# IKKε = target: T1, IKKε (Homo sapiens, UniProt Q14164); test: IKKe Biochemical Assay; conditions: read-out: IKKε IC50
# T1 sequence (Q14164 1-716): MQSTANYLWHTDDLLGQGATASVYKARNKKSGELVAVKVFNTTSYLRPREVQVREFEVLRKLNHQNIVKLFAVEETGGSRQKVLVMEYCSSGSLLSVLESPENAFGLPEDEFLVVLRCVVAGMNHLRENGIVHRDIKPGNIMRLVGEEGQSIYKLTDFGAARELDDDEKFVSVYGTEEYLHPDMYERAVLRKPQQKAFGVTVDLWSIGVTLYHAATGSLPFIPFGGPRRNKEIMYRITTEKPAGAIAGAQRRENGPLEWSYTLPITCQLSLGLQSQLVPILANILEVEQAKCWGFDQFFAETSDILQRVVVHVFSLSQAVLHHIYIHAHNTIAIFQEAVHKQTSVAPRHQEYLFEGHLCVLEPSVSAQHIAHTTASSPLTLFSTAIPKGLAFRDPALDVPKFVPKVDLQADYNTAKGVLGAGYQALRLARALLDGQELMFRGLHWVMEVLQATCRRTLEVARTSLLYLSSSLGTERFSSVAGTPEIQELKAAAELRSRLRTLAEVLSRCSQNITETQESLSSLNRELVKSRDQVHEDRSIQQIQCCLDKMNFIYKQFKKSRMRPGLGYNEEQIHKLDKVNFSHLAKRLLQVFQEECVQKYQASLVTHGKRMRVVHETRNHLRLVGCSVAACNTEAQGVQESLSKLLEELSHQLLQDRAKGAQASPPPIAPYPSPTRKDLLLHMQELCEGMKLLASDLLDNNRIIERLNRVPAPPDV
# Protocol: (§1) Test compounds were transferred into Labcyte polypropylene 384 well plates (P055-25) and diluted to 3 mM using DMSO. 3 mM test compounds were dispensed using Labcyte ECHO dose response module into (Greiner 784075 plates (columns 3-12 and 13-22, 10 point 1:4) so that high concentration was 30 uM final. 100 uM of a reference compound (1 uM final high concentration). Backfilling was performed if necessary so that all wells contain 1% DMSO final: […]
# (§2) add 75 nl DMSO/well into columns 1, 2 and 24 using Labcyte Echo. add 75 nl 1.0 mM staurosporine/well into column 23 using Labcyte Echo (10 uM final) add 4.5 ul enzyme/well using multidrop dispenser add 3 ul substrate/well using multidrop dispenser incubate at 25° C. for 90 min. add 7.5 ul 2× stop buffer read on labchip ez reader II using IKKε. job
# (§3) Raw data files were opened in the Caliper LabChip Reviewer program (Version 3.0.265.0 SP2) and peak assignments were adjusted to reflect “substrate first” with the software's post-run analysis options. A spline-fit baseline was applied using the software's analysis algorithm.
# TBK1 = target: T2, TBK1 (Homo sapiens, UniProt Q9UHD2); test: TBK Biochemical Assay; conditions: read-out: TBK1 IC50
# T2 sequence (Q9UHD2 1-729): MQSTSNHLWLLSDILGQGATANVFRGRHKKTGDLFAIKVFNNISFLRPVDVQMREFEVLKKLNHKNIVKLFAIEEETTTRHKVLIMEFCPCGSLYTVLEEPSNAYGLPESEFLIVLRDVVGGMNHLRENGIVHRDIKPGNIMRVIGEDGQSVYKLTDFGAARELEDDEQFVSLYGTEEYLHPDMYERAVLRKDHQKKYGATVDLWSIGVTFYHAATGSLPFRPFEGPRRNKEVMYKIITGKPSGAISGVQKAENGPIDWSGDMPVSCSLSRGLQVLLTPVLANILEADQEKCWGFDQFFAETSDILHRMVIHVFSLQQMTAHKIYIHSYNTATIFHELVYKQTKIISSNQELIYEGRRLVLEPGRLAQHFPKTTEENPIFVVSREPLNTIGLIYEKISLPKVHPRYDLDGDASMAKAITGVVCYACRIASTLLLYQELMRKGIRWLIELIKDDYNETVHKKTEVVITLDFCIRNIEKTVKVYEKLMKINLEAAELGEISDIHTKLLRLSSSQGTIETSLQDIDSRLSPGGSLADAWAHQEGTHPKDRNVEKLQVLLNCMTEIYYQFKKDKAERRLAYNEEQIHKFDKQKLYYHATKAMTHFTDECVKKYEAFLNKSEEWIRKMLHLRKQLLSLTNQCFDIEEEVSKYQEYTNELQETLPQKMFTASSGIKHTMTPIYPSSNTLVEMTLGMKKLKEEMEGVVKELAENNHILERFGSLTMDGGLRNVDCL
# Protocol: Example 482: TBK Biochemical Assay
# as §1, with “Greiner” for “(Greiner”
# as §2, with “C. in Heidolph incubator” for “C.”, “buffer using multidrop dispenser” for “buffer”, “TBK1.job” for “IKKε. job”
# as §3
SMILES,IC50 (IKKε) [nM],IC50 (TBK1) [nM]
"COc1cc(C(=O)N2CCC(C)(O)C2)ccc1-c1cc2nccc(-c3ccc(OC4CCOCC4)c(C#N)c3)c2o1 (stereo not drawn) [Compound 19, 5-{2-[4-(3-Hydroxy-3-methyl-pyrrolidine-1-carbonyl)-2-methoxy-phenyl]-furo[3,2-b]pyridin-7-yl}-2-(tetrahydro-pyran-4-yloxy)-benzonitrile]",< 100,< 100
"COc1cc(C(=O)N2CCCC(O)C2)ccc1-c1cc2nccc(-c3ccc(OC4CCOCC4)c(C#N)c3)c2o1 (stereo not drawn) [Compound 22, 5-{2-[4-(3-Hydroxy-piperidine-1-carbonyl)-2-methoxy-phenyl]-furo[3,2-b]pyridin-7-yl}-2-(tetrahydro-pyran-4-yloxy)-benzonitrile]",< 100,< 100
"COc1cc(C(=O)N2CC(S(C)(=O)=O)C2)ccc1-c1cc2nccc(-c3ccc(OC4CCOCC4)c(C#N)c3)c2o1 [Compound 26, 5-{2-[4-(3-Methanesulfonyl-azetidine-1-carbonyl)-2-methoxy-phenyl]-furo[3,2-b]pyridin-7-yl}-2-(tetrahydro-pyran-4-yloxy)-benzonitrile]",< 100,< 100
"COc1cc(C(=O)N(C)C2CCNCC2)ccc1-c1cc2nccc(-c3ccc(OC4CCOCC4)c(C#N)c3)c2o1 [Compound 41, 4-(7-[3-Cyano-4-(tetrahydro-pyran-4-yloxy)-phenyl]-furo[3,2-b]pyridin-2-yl)-3-methoxy-N-methyl-N-piperidin-4-yl-benzamide hydrochloride]",< 100,< 100
"COc1cc(C(=O)N2CCC2)ccc1-c1cc2nccc(-c3ccc(OC4CCOCC4)c(C#N)c3)c2o1 [Compound 44, 5-{2-[4-(Azetidine-1-carbonyl)-2-methoxy-phenyl]-furo[3,2-b]pyridin-7-yl}-2-(tetrahydro-pyran-4-yloxy)-benzonitrile]",< 100,< 100
"COc1cc(C(=O)N2CC(C)(O)C2)ccc1-c1cc2nccc(-c3ccc(OC4CCOCC4)c(C#N)c3)c2o1 [Compound 48, 5-{2-[4-(3-Hydroxy-3-methyl-azetidine-1-carbonyl)-2-methoxy-phenyl]-furo[3,2-b]pyridin-7-yl}-2-(tetrahydro-pyran-4-yloxy)-benzonitrile]",< 100,< 100
"COc1cc(C(=O)N(C)C2CCNC2)ccc1-c1cc2nccc(-c3ccc(OC4CCOCC4)c(C#N)c3)c2o1 (stereo not drawn) [Compound 56, 4-{7-[3-Cyano-4-(tetrahydro-pyran-4-yloxy)-phenyl]-furo[3,2-b]pyridin-2-yl}-3-methoxy-N-methyl-N-pyrrolidin-3-yl-benzamide]",< 100,< 100
"COc1cc(C(=O)N(C)C2CC2)ccc1-c1cc2nccc(-c3ccc(OC4CCOCC4)c(C#N)c3)c2o1 [Compound 60, 4-{7-[3-Cyano-4-(tetrahydro-pyran-4-yloxy)-phenyl]-furo[3,2-b]pyridin-2-yl}-N-cyclopropyl-3-methoxy-N-methyl-benzamide]",< 100,< 100
"COc1cc(C(=O)N(C)C2CCN(C)C2)ccc1-c1cc2nccc(-c3ccc(OC4CCOCC4)c(C#N)c3)c2o1 (stereo not drawn) [Compound 61, 4-{7-[3-Cyano-4-(tetrahydro-pyran-4-yloxy)-phenyl]-furo[3,2-b]pyridin-2-yl}-3-methoxy-N-methyl-N-(1-methyl-pyrrolidin-3-yl)-benzamide]",< 100,< 100
"COc1cc(C(=O)N2C3COCC2CC(O)C3)ccc1-c1cc2nccc(-c3ccc(OC4CCOCC4)c(C#N)c3)c2o1 (stereo not drawn) [Compound 66, 5-{2-[4-(7-Hydroxy-3-oxa-9-aza-bicyclo[3.3.1]nonane-9-carbonyl)-2-methoxy-phenyl]-furo[3,2-b]pyridin-7-yl}-2-(tetrahydro-pyran-4-yloxy)-benzonitrile]",< 100,< 100
"COc1cc(C(=O)N2C[C@H]3C[C@@H](O)C[C@H]3C2)ccc1-c1cc2nccc(-c3ccc(NC4CCOCC4)c(C#N)c3)c2o1 [Compound 81, 5-{2-[4-((3aR,5R,6aS)-5-Hydroxy-hexahydro-cyclopenta[c]pyrrole-2-carbonyl)-2-methoxy-phenyl]-furo[3,2-b]pyridin-7-yl}-2-(tetrahydro-pyran-4-ylamino)-benzonitrile]",< 100,< 100
"COc1cc(C(=O)NC2CCOCC2)ccc1-c1cc2nccc(-c3ccc(OC4CCOCC4)c(C#N)c3)c2o1 [Compound 83, 4-{7-[3-Cyano-4-(tetrahydro-pyran-4-yloxy)-phenyl]-furo[3,2-b]pyridin-2-yl}-3-methoxy-N-(tetrahydro-pyran-4-yl)-benzamide]",< 100,< 100
"COc1cc(C(=O)N2CC3CC2CO3)ccc1-c1cc2nccc(-c3ccc(NC4CCOCC4)c(C#N)c3)c2o1 (stereo not drawn) [Compound 85, 5-{2-[2-Methoxy-4-(2-oxa-5-aza-bicyclo[2.2.1]heptane-5-carbonyl)-phenyl]-furo[3,2-b]pyridin-7-yl}-2-(tetrahydro-pyran-4-ylamino)-benzonitrile]",< 100,< 100
"COc1cc(C(=O)NC2(C)CCNC2)ccc1-c1cc2nccc(-c3ccc(OC4CCOCC4)c(C#N)c3)c2o1 (stereo not drawn) [Compound 86, 4-{7-[3-Cyano-4-(tetrahydro-pyran-4-yloxy)-phenyl]-furo[3,2-b]pyridin-2-yl}-3-methoxy-N-(3-methyl-pyrrolidin-3-yl)-benzamide hydrochloride]",< 100,< 100
"COc1cc(C(=O)N2CCCC2C(F)F)ccc1-c1cc2nccc(-c3ccc(OC4CCOCC4)c(C#N)c3)c2o1 (stereo not drawn) [Compound 89, 5-{2-[4-(2-Difluoromethyl-pyrrolidine-1-carbonyl)-2-methoxy-phenyl]-furo[3,2-b]pyridin-7-yl}-2-(tetrahydro-pyran-4-yloxy)-benzonitrile]",< 100,< 100
"COc1cc(C(=O)N2C3CCC2COC3)ccc1-c1cc2nccc(-c3ccc(NC4CCOCC4)c(C#N)c3)c2o1 [Compound 94, 5-{2-[2-Methoxy-4-(3-oxa-8-aza-bicyclo[3.2.1]octane-8-carbonyl)-phenyl]-furo[3,2-b]pyridin-7-yl}-2-(tetrahydro-pyran-4-ylamino)-benzonitrile]",< 100,< 100
"COc1cc(C(=O)N2CC[C@@H](O)C2)ccc1-c1cc2nccc(-c3ccc(NC4CCOCC4)c(C#N)c3)c2o1 [Compound 95, 5-{2-[4-((R)-3-Hydroxy-pyrrolidine-1-carbonyl)-2-methoxy-phenyl]-furo[3,2-b]pyridin-7-yl}-2-(tetrahydro-pyran-4-ylamino)-benzonitrile]",< 100,< 100
COc1cc(C(=O)N2CC3CCC(O)C3C2)ccc1-c1cc2nccc(-c3ccc(NC4CCOCC4)c(C#N)c3)c2o1 (stereo not drawn) [Compound 96],< 100,< 100

# Source: US10428080B2, “TBK/IKK inhibitor compounds and uses thereof” (Merck Patent GmbH, priority 2015, dated 2019)
